Values of other authors, collected in patent US11766428B2 (TAVANTA THERAPEUTICS HUNGARY INCORPORATED, priority 2018, dated 2023).

What was measured:
[1] = not given; remark: listed apart in the source

SMILES | solubility in ethanol | solubility in water | circulating drug bound to plasma proteins ([1]; ex vivo, hypertensive patients) | influence of renal impairment on pharmacokinetics ([1]; human, in vivo) | parent compound excreted in the urine ([1]; human, in vivo) [%] | therapeutic plasma level ([1]; human, in vivo) [ng/mL] | effect of food on bioavailability ([1]; oral)
CCOC(=O)C1=C(COCCN)NC(C)=C(C(=O)OC)C1c1ccccc1Cl (racemic) [Amlodipine besylate, 3-ethyl-5-methyl (±)-2-[(2-aminoethoxy)methyl]-4-(2-chlorophenyl)-1,4-dihydro-6-methyl-3,5-pyridinedicarboxylate, monobenzenesulphonate] | sparingly soluble | slightly soluble | – | – | – | – | –
CCOC(=O)C1=C(COCCN)NC(C)=C(C(=O)OC)C1c1ccccc1Cl (stereo not shown) [amlodipine] | – | – | approximately 93% | not significantly influenced | 10 | 3 to 10 | not altered by the presence of food
